According to article PMC3632402 (Analytical biochemistry, 2012):

How the values were obtained:
hsEH = target: T1, hsEH (Homo sapiens, UniProt P34913); assay: Fluorescence binding assay
T1 sequence (P34913 1-555): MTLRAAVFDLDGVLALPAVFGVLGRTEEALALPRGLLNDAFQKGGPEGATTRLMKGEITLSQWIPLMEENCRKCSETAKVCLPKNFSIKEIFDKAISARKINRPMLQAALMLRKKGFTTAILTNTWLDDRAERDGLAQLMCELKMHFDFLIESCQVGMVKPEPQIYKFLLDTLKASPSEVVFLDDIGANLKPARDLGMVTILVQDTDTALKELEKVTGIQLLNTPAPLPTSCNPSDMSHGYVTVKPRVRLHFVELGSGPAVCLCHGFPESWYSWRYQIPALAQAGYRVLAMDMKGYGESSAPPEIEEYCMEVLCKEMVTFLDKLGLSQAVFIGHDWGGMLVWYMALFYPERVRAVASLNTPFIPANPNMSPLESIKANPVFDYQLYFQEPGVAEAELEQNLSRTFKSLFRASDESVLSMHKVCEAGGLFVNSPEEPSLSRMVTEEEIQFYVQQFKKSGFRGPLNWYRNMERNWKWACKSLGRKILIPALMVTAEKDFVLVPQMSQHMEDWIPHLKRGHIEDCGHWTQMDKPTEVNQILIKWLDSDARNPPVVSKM

murine sEH = target: T2, murine sEH (Mus musculus, UniProt P34914); assay: Fluorescence binding assay of reporter ACPU on murine sEH
T2 sequence (P34914 1-554): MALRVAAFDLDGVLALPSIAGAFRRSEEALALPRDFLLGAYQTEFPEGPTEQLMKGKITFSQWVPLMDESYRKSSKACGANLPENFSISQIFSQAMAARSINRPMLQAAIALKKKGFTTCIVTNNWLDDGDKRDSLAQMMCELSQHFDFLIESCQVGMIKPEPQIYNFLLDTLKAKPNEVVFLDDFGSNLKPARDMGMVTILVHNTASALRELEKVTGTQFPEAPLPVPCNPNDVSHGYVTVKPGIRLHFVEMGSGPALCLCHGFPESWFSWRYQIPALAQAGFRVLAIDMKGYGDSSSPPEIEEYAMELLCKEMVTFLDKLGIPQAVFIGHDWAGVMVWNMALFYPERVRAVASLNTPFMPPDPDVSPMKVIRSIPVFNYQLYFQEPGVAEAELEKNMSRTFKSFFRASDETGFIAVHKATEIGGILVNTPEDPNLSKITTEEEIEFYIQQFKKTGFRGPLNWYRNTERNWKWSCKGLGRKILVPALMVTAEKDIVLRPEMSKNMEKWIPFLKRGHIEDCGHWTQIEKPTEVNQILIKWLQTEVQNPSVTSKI

rat sEH = target: T3, rat sEH (Rattus norvegicus, UniProt P80299); assay: Fluorescence binding assay of reporter ACPU on rat sEH
T3 sequence (P80299 1-554): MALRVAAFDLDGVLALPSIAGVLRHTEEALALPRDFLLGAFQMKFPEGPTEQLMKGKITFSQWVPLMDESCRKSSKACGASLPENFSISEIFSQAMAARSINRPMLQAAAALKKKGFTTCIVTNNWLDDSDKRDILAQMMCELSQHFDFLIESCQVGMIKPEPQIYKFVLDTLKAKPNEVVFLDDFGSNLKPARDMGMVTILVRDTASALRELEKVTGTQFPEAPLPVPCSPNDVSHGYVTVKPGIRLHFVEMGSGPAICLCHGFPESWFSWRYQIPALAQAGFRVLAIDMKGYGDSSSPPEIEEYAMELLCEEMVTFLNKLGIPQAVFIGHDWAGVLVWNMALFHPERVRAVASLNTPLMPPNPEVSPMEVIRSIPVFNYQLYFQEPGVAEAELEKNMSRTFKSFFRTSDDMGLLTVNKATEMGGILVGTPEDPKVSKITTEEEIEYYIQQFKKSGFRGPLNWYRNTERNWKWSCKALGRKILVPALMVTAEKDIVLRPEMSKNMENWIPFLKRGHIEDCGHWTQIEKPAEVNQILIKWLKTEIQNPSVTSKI

O=C(NC1CCN(C(=O)Cc2cc(=O)oc3cc(O)ccc23)CC1)NC12CC3CC(CC(C3)C1)C2 [ACPU, 1-(adamantan-1-yl)-3-(1-(2-(7-hydroxy-2-oxo-2H-chromen-4-yl)acetyl)piperidin-4-yl)urea]
Kd (hsEH): 1.04 ± 0.04 nM
time needed to reach the equilibrium between ACPU and sEH (hsEH; FRET signal at 450 nm): 40 min
Kd (murine sEH): 0.1 nM
Kd (rat sEH): 0.17 nM
